The text below walks through data of patent US20110237659A1, “CHROMENONE DERIVATIVES AS TRPV3 ANTAGONISTS” (GLENMARK PHARMACEUTICALS S.A., priority 2008, published 2011).

The assay deals with T1, Human TRPV3 (Homo sapiens, UniProt Q8NET8).
T1 construct: expressed in transfected cells; host or cells: CHO cells
T1 sequence (Q8NET8 1-790): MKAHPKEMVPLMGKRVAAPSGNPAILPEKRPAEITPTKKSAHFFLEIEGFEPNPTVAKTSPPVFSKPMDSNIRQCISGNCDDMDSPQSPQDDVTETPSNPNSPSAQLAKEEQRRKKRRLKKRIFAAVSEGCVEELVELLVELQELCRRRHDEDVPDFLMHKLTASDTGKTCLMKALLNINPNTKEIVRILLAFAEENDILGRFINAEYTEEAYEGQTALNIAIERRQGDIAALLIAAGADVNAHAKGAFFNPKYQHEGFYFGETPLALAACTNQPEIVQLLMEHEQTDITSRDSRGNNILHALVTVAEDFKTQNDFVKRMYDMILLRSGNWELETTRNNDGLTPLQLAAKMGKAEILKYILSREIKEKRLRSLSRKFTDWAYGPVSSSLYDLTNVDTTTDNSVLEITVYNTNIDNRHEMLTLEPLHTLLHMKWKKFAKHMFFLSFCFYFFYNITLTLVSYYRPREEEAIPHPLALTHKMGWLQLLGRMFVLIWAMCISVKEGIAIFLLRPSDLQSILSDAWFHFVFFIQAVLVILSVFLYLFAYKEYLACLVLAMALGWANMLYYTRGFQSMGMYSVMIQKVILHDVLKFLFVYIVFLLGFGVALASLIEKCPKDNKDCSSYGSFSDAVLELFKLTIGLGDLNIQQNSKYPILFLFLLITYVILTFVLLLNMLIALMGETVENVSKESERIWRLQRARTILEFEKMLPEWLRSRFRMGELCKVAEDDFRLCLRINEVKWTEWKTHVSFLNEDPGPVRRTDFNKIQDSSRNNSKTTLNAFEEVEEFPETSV
Description: 45Calcium uptake assay: inhibition of 2-APB induced cellular uptake of radioactive calcium in human TRPV3 expressing CHO cells. As to conditions: 2-APB 500 μM; for inhibition at 1 µM: 1.0 μM test compound, read-out: Percentage inhibition at 1.0 μM; for inhibition at 10 µM: 10.0 μM test compound, read-out: Percentage inhibition at 10.0 μM. In kind it is cell-based. The source says: The illustrative examples of the present invention are screened for TRPV3 activity according to a modified procedure described in (a) Tóth, A. et al. Life Sciences 2003, 73, 487-498. (b) McNamara C, R. et al. Proc. Natl. Acad. Sci. U.S.A., 2007, 104, 13525-13530. The screening of the compounds can be carried out by other methods and procedures known to persons skilled in the art.
Screening for TRPV3 Antagonist Using the ^45Calcium Uptake Assay
The inhibition of TRPV3 receptor activation was followed as inhibition of 2-aminoethxydiphenylborate (2-APB) induced cellular uptake of radioactive calcium. Test compounds were dissolved in dimethyl sulfoxide (DMSO) to prepare 20 mM stock solution and then diluted using plain medium with DMEM/F-12 containing 1.8 mM CaCl2 to get desired concentration. Final concentration of DMSO in the reaction was 0.5% (v/v). Human TRPV3 expressing CHO cells were grown in DMEM/F-12 medium with 10% FBS, 1% penicillin-streptomycin solution, 400 μg/mL of G-418. Cells were seeded 24 h prior to the assay in 96 well plates so as to get ˜50,000 cells per well on the day of experiment. Cells were treated with test compounds for 10 minutes followed by addition of 2-APB at a final concentration of 500 μM and 5 μCi/mL ^45Ca^+2 for 4 minutes. Cells were washed and lysed using buffer containing 1% Triton X-100, 0.1% deoxycholate and 0.1% SDS. Radioactivity in the lysate was measured in Packardt Top count after addition of liquid scintillant. Concentration response curves were plotted as a % of maximal response obtained in the absence of test antagonist. IC50 value was calculated from concentration response curve by nonlinear regression analysis using GraphPad PRISM software.
Percentage inhibition at concentrations of 1.0 μM and 10.0 μM are given in the table along with IC50 (nM) values for selected examples.

Some results are limits rather than exact numbers.

As for `COc1cccc(/C=C/c2oc3ccccc3c(=O)c2-c2ccc(OC(F)(F)F)cc2)c1OCC1CC1` [Example 1, 2-[(E)-2-(2-Cyclopropylmethoxy-3-methoxyphenyl)-1-ethenyl]-3-(4-trifluoromethoxy-phenyl)-4H-4-chromenone], the inhibition at 1 µM was determined as 36.7% and the inhibition at 10 µM turned out to be 62.2%.
Consider `COc1cccc(/C=C/c2oc3ccccc3c(=O)c2-c2ccc(C(F)(F)F)cc2)c1OCC1CC1` [Example 2, 2-[(E)-2-(2-Cyclopropylmethoxy-3-methoxyphenyl)-1-ethenyl]-3-(4-trifluoromethyl-phenyl)-4H-4-chromenone], for which the inhibition at 1 µM turned out to be 63.1%, the inhibition at 10 µM was 75.4% and the IC50 fell in the range of 150 to 1000 nM.
As for `COc1cccc(/C=C/c2oc3ccccc3c(=O)c2-c2ccc(C#N)cc2)c1OCC1CC1` [Example 3, 4-{2-[(E)-2-(2-Cyclopropylmethoxy-3-methoxyphenyl)-1-ethenyl]-4-oxo-4H-3-chromenyl}benzonitrile], the inhibition at 1 µM was found to be 90.4%, the inhibition at 10 µM worked out at 94.5% and the concentration for half-maximal inhibition (IC50) lay within 150 to 1000 nM.
`N#Cc1ccc(-c2c(/C=C/c3cccc(OC(F)F)c3OCC3CC3)oc3ccccc3c2=O)cc1` [Example 4, 4-(2-{(E)-2-[2-(Cyclopropylomethoxy)-3-(difluoromethoxy)phenyl]vinyl}-4-oxo-4H-3-chromenyl}benzonitrile]: the inhibition at 1 µM came to 92.9%, the inhibition at 10 µM turned out to be 94.8% and the 50% inhibitory concentration (IC50) fell in the range of 150 to 1000 nM.
On to `COc1cccc(/C=C/c2oc3ccccc3c(=O)c2-c2ccc(C#N)cc2)c1OC1CCCC1` [Example 5, 4-{2-[(E)-2-(2-Cyclopentyloxy-3-methoxyphenyl)-1-ethenyl]-4-oxo-4H-3-chromenyl}benzonitrile], for which the inhibition at 1 µM came to 71.8%, the inhibition at 10 µM turned out to be 90.3% and the concentration for half-maximal inhibition (IC50) was in the range of 150 to 1000 nM.
Regarding `COc1cccc(/C=C/c2oc3ccccc3c(=O)c2-c2ccc(C#N)cc2)c1O` [Example 6, 4-{2-[(E)-2-(2-Hydroxy-3-methoxyphenyl)-1-ethenyl]-4-oxo-4H-3-chromenyl}-benzonitrile], the inhibition at 1 µM is 32.1% and the inhibition at 10 µM came out at 83.9%.
As for `COc1cccc(/C=C/c2oc3ccccc3c(=O)c2-c2ccc(C#N)cc2)c1OCC(C)(C)C` [Example 7, 4-{2-[(E)-2-[2-(2,2-Dimethylpropoxy)-3-methoxyphenyl]-1-ethenyl]-4-oxo-4H-3-chromenyl}benzonitrile], the inhibition at 1 µM was determined as 89.8%, the inhibition at 10 µM was determined as 93.2% and the 50% inhibitory concentration (IC50) lay in the range of 50 to 150 nM.
With `COc1cccc(/C=C/c2oc3ccccc3c(=O)c2-c2ccc(C#N)cc2)c1OCC(C)C` [Example 8, 4-{2-[(E)-2-[2-Isobutoxy-3-methoxyphenyl)-1-ethenyl]-4-oxo-4H-3-chromenyl}benzonitrile], the inhibition at 1 µM came to 89.3%, the inhibition at 10 µM was 96.4% and the half-inhibitory concentration (IC50) lay in the range of 50 to 150 nM.
As for `COc1cccc(/C=C/c2oc3ccccc3c(=O)c2-c2ccc(C#N)cc2)c1OCCC(F)(F)F` [Example 9, 4-(2-{(E)-2-[3-Methoxy-2-(3,3,3-trifluoropropoxy)phenyl]-1-ethenyl}-4-oxo-4H-3-chromenyl}benzonitrile], the inhibition at 1 µM stood at 94.5%, the inhibition at 10 µM is 98% and the IC50 fell in the range of 50 to 150 nM.
For the compound `COc1cccc(/C=C/c2oc3cc(F)ccc3c(=O)c2-c2ccc(C#N)cc2)c1OCC1CC1` [Example 10, 4-{2-[(E)-2-(2-Cyclopropylmethoxy-3-methoxyphenyl)-1-ethenyl]-7-fluoro-4-oxo-4H-3-chromenyl}benzonitrile], the inhibition at 1 µM was 87.3%, the inhibition at 10 µM stood at 95.6% and the IC50 was 150 to 1000 nM.
Turning to `COc1cccc(/C=C/c2oc3cc(F)ccc3c(=O)c2-c2ccc(C#N)cc2)c1OC1CCCC1` [Example 11, 4-{2-[(E)-2-(2-Cyclopentyloxy-3-methoxyphenyl)-1-ethenyl]-7-fluoro-4-oxo-4H-3-chromenyl}benzonitrile], the inhibition at 1 µM was determined as 84.6%, the inhibition at 10 µM stood at 92.6% and the 50% inhibitory concentration (IC50) lay within 50 to 150 nM.
For the compound `COc1cccc(/C=C/c2oc3cc(F)ccc3c(=O)c2-c2ccc(C#N)cc2)c1OCC(C)(C)C` [Example 12, 4-{7-Fluoro-2-[(E)-2-(3-methoxy-2-neopentyloxyphenyl)-1-ethenyl]-4-oxo-4H-3-chromenyl}benzonitrile], the inhibition at 1 µM stood at 82.2%, the inhibition at 10 µM came out at 91.2% and the half-inhibitory concentration (IC50) was less than 50 nM.
On to `COc1cccc(/C=C/c2oc3cc(F)ccc3c(=O)c2-c2ccc(C#N)cc2)c1OCC(C)C` [Example 13, 4-{7-Fluoro-2-[(E)-2-(2-isobutoxy-3-methoxyphenyl)-1-ethenyl]-4-oxo-4H-3-chromenyl}benzonitrile], for which the inhibition at 1 µM turned out to be 92.9%, the inhibition at 10 µM turned out to be 96.7% and the IC50 lay within 50 to 150 nM.
For the compound `COc1cccc(/C=C/c2oc3cc(F)ccc3c(=O)c2-c2ccc(C#N)cc2)c1OCCC(F)(F)F` [Example 14, 4-(7-Fluoro-2-{(E)-2-[3-methoxy-2-(3,3,3-trifluoropropoxy)phenyl]-1-ethenyl}-4-oxo-4H-3-chromenyl)benzonitrile], the inhibition at 1 µM came to 96%, the inhibition at 10 µM turned out to be 98.7% and the IC50 was in the range of 150 to 1000 nM.
As for `COc1cccc(/C=C/c2oc3ccc(F)cc3c(=O)c2-c2ccc(C#N)cc2)c1OCC1CC1` [Example 15, 4-{2-[(E)-2-(2-Cyclopropylmethoxy-3-methoxyphenyl)-1-ethenyl]-6-fluoro-4-oxo-4H-3-chromenyl}benzonitrile], the inhibition at 1 µM was found to be 79.3%, the inhibition at 10 µM stood at 94.1% and the 50% inhibitory concentration (IC50) was in the range of 150 to 1000 nM.
In the case of `COc1cccc(/C=C/c2oc3ccc(F)cc3c(=O)c2-c2ccc(C#N)cc2)c1OC1CCCC1` [Example 16, 4-{2-[(E)-2-(2-Cyclopentyloxy-3-methoxyphenyl)-1-ethenyl]-6-fluoro-4-oxo-4H-3-chromenyl}benzonitrile], the inhibition at 1 µM stood at 59.4% and the inhibition at 10 µM came out at 74.4%.
In the case of `COc1cccc(/C=C/c2oc3ccc(F)cc3c(=O)c2-c2ccc(C#N)cc2)c1OCC1CCC1` [Example 17, 4-{2-[(E)-2-(2-Cyclobutylmethoxy-3-methoxyphenyl)-1-ethenyl]-6-fluoro-4-oxo-4H-3-chromenyl}benzonitrile], the inhibition at 1 µM was 78.2%, the inhibition at 10 µM is 89.8% and the IC50 lay within 150 to 1000 nM.
With `COc1cccc(/C=C/c2oc3ccc(F)cc3c(=O)c2-c2ccc(C#N)cc2)c1OCCC(C)C` [Example 18, 4-{6-Fluoro-2-[(E)-2-(2-isopentyloxy-3-methoxyphenyl)-1-ethenyl]-4-oxo-4H-3-chromenyl}benzonitrile], the inhibition at 1 µM is 55.2% and the inhibition at 10 µM turned out to be 71.7%.
For the compound `COc1cccc(/C=C/c2oc3ccc(F)cc3c(=O)c2-c2ccc(C#N)cc2)c1OCC(C)C` [Example 19, 4-{6-Fluoro-2-[(E)-2-(2-isobutoxy-3-methoxyphenyl)-1-ethenyl]-4-oxo-4H-3-chromenyl}benzonitrile], the inhibition at 1 µM came to 70.2%, the inhibition at 10 µM was found to be 87.8% and the IC50 was less than 50 nM.
The corresponding values for `COc1cccc(/C=C/c2oc3ccc(F)cc3c(=O)c2-c2ccc(C#N)cc2)c1OCC(C)(C)C` [Example 20] are 74.3%, 78.5% and less than 50 nM.

What is called inhibition is the share of the control response that was lost under treatment. The IC50 is the midpoint of a concentration-inhibition curve.
